We go through 31 compounds from patent publication US11746100B2 (GLOBAL BLOOD THERAPEUTICS, INC., priority 2020, dated 2023).

Usually pEC50 stands for the negative decadic logarithm of the EC50, by convention in mol/L. Higher therefore signals a low EC50.

The assay has as its target T1, human ferroportin (Homo sapiens, UniProt Q9NP59).
T1 construct: luciferase reporter (read with the Nano-Glo Luciferase Assay System); expressed in transfected cells; host or cells: CHO cells, stably transfected, expression induced with doxycycline
T1 sequence (Q9NP59 1-571): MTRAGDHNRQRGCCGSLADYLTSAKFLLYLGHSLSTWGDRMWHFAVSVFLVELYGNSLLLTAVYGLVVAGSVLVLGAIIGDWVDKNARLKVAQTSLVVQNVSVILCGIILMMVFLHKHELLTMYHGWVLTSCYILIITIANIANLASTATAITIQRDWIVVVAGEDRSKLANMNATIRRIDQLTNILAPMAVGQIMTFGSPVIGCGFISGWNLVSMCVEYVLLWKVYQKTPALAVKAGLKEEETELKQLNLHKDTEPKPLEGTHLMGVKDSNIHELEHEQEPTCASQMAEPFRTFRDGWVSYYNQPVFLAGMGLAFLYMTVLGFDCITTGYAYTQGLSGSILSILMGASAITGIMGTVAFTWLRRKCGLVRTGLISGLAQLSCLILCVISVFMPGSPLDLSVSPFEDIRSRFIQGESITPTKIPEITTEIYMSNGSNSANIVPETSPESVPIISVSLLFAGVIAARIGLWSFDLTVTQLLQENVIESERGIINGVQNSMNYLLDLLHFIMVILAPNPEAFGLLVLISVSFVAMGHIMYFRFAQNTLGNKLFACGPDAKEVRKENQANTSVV
The assay can be described thus: Biological in-vitro ferroportin internalization assay (luciferase reporter). Type of assay: cell-based. To be noted: average pEC50; stably-transfected CHO cell line expressing human ferroportin tagged to a luciferase reporter; 6 h incubation with test compound. How it is done:
The protocol for this assay is generally as described in WO2018/128828, incorporated herein by reference in its entirety. Functional internalization of ferroportin protein was measured using a stably-transfected CHO cell line expressing the human ferroportin tagged to a luciferase reporter. Cells were plated for 24 h in the presence of ferric ammonium citrate (FAC). Ferroportin protein expression was induced with doxycycline for 24 h. The next day, the compounds were added. Test compounds were dissolved in DMSO. Cells were incubated with the test compounds for 6 h, and subsequently luciferase activity was measured using the Nano-Glo Luciferase Assay System and Glomax (Promega, Madison, Wis.). The average pEC50 was determined for the test compounds.
In general terms: In a reporter assay the amount or activity of a reporter protein is the signal.
The compound `O=C(CNc1nc(-c2ccccn2)nc2c1CCC2)Nc1ccccn1` [Compound 5, N-(pyridin-2-yl)-2-{[2-(pyridin-2-yl)-5H,6H,7H-cyclopenta[d]pyrimidin-4-yl]amino}acetamide] registered a pEC50 of 6.2.

With `O=C(CNc1nc(-c2ccccn2)nc2c1CCC2)Nc1ccccc1F` [Compound 6, N-(2-fluorophenyl)-2-{[2-(pyridin-2-yl)-5H,6H,7H-cyclopenta[d]pyrimidin-4-yl]amino}acetamide], the pEC50 is recorded as 6.5. In the case of `O=C(CNc1nc(-c2ccccn2)nc2c1CCC2)Nc1ccc2cccnc2c1` [Compound 7, 2-{[2-(pyridin-2-yl)-5H,6H,7H-cyclopenta[d]pyrimidin-4-yl]amino}-N-(quinolin-7-yl)acetamide], the pEC50 is reported as 6.6. The compound `CC(C)(C)NC(=O)CNc1cc(-c2ccccn2)nc2c1CCC2` [Compound 9, N-tert-butyl-2-{[2-(pyridin-2-yl)-5H,6H,7H-cyclopenta[b]pyridin-4-yl]amino}acetamide] came in with a pEC50 of 6.2. Next, `CC(C)(C)NC(=O)CNc1nc(-c2ccccn2)nc2c1CCCC2` [Compound 10, N-tert-butyl-2-{[2-(pyridin-2-yl)-5,6,7,8-tetrahydroquinazolin-4-yl]amino}acetamide]: 6.6; `COc1ccc(NC2CCCN(c3nc(-c4ccccn4)nc4c3CCC4)C2)cc1` (stereo not shown) [Compound 11, N-(4-methoxyphenyl)-1-[2-(pyridin-2-yl)-5H,6H,7H-cyclopenta[d]pyrimidin-4-yl]piperidin-3-amine]: 6.3; `COc1cnc(-c2nc3c(c(N(C)CC(=O)NC(C)(C)C)n2)CCC3)cn1` [Compound 12, N-tert-butyl-2-{[2-(5-methoxypyrazin-2-yl)-5H,6H,7H-cyclopenta[d]pyrimidin-4-yl](methyl)amino}acetamide]: 5.8. Regarding `CN(C)c1ccnc(-c2nc3c(c(N4CCCCCC4)n2)CCC3)c1` [Compound 13, 2-[4-(azepan-1-yl)-5H,6H,7H-cyclopenta[d]pyrimidin-2-yl]-N,N-dimethylpyridin-4-amine], the pEC50 stood at 6.4. As for `Cc1ccnc(-c2nc3c(c(N4CCCCCC4)n2)CCC3)c1` [Compound 14, 1-[2-(4-methylpyridin-2-yl)-5H,6H,7H-cyclopenta[d]pyrimidin-4-yl]azepane], the pEC50 came to 6.8. `COc1ccccc1NC(=O)CN(C)c1nc(-c2ccccn2)nc2c1CCC2` [Compound 15, N-(2-methoxyphenyl)-2-{methyl[2-(pyridin-2-yl)-5H,6H,7H-cyclopenta[d]pyrimidin-4-yl]amino}acetamide] returned a pEC50 of 6.9. Take `CN(CC(=O)NC(C)(C)C)c1cc(-c2ccccn2)nc2c1CCC2` [Compound 16, N-tert-butyl-2-{methyl[2-(pyridin-2-yl)-5H,6H,7H-cyclopenta[b]pyridin-4-yl]amino}acetamide]: the pEC50 worked out at 6.6. In turn, `CN(c1nc(-c2ccccn2)nc2c1CCC2)C1(C(=O)NC2CCCCC2)CC1` [Compound 17, N-cyclohexyl-1-{methyl[2-(pyridin-2-yl)-5H,6H,7H-cyclopenta[d]pyrimidin-4-yl]amino}cyclopropane-1-carboxamide] came in with a pEC50 of 6.6. For the compound `c1ccc(-c2nc3c(c(N4CCCO[C@H]5CCC[C@@H]54)n2)CCC3)nc1` [Compound 18, 2-{4-[(5aS,8aS)-octahydro-2H-cyclopenta[b][1,4]oxazepin-5-yl]-5H,6H,7H-cyclopenta[d]pyrimidin-2-yl}pyridine], the pEC50 was found to be 7.1. With `CN(c1nc(-c2ccccn2)nc2c1CCC2)C(C)(C)C(=O)NC(C)(C)C` [Compound 19, N-tert-butyl-2-methyl-2-{methyl[2-(pyridin-2-yl)-5H,6H,7H-cyclopenta[d]pyrimidin-4-yl]amino}propanamide], the pEC50 amounted to 5.4. In the case of `CC(C(=O)NC(C)(C)C)N(c1ccccc1)c1nc(-c2ccccn2)nc2c1CCC2` (stereo not shown) [Compound 20, N-tert-butyl-2-{phenyl[2-(pyridin-2-yl)-5H,6H,7H-cyclopenta[d]pyrimidin-4-yl]amino}propanamide], the pEC50 was determined as 6.7. Compound `CN(CC(=O)Nc1ccc2cccnc2c1)c1nc(-c2ccccn2)nc2c1CCC2` [Compound 21, 2-{methyl[2-(pyridin-2-yl)-5H,6H,7H-cyclopenta[d]pyrimidin-4-yl]amino}-N-(quinolin-7-yl)acetamide] displayed a pEC50 of 6.9. `CN(CC(=O)Nc1ccccc1F)c1nc(-c2ccccn2)nc2c1CCC2` [Compound 22, N-(2-fluorophenyl)-2-{methyl[2-(pyridin-2-yl)-5H,6H,7H-cyclopenta[d]pyrimidin-4-yl]amino}acetamide] displayed a pEC50 of 7.

`CN(CC(=O)NC(C)(C)C)c1nc(-c2ccccn2)nc2c1CCCC2` [Compound 23, N-tert-butyl-2-{methyl[2-(pyridin-2-yl)-5,6,7,8-tetrahydroquinazolin-4-yl]amino}acetamide] gave a pEC50 of 6.9.

`Cc1ccnc(-c2nc3c(c(N(C)CC(=O)NC(C)(C)C)n2)CCC3)c1` [Compound 24, N-tert-butyl-2-{methyl[2-(4-methylpyridin-2-yl)-5H,6H,7H-cyclopenta[d]pyrimidin-4-yl]amino}acetamide] yielded a pEC50 of 7.6. The value for `CN(CC(=O)NC1(C)CCCCC1)c1nc(-c2ccccn2)nc2c1CCC2` [Compound 25, 2-{methyl[2-(pyridin-2-yl)-5H,6H,7H-cyclopenta[d]pyrimidin-4-yl]amino}-N-(1-methylcyclohexyl)acetamide] was 7.1; that for `CN(CC(=O)NC1CCCOC1)c1nc(-c2ccccn2)nc2c1CCC2` (stereo not shown) [Compound 26, 2-{methyl[2-(pyridin-2-yl)-5H,6H,7H-cyclopenta[d]pyrimidin-4-yl]amino}-N-(oxan-3-yl)acetamide] was 6.6; that for `CN(CC(=O)NCc1ccccc1)c1nc(-c2ccccn2)nc2c1CCC2` [Compound 27, N-benzyl-2-{methyl[2-(pyridin-2-yl)-5H,6H,7H-cyclopenta[d]pyrimidin-4-yl]amino}acetamide] was 6.8.

In turn, `CN(CC(=O)NC(C)(C)C)c1nc(-c2cnc(O)cn2)nc2c1CCC2` [Compound 28, N-tert-butyl-2-{[2-(5-hydroxypyrazin-2-yl)-5H,6H,7H-cyclopenta[d]pyrimidin-4-yl](methyl)amino}acetamide] gave a pEC50 of 5.9.

`O=C(NC1CCCCC1)C1CN(c2nc(-c3ccccn3)nc3c2CCC3)C1` [Compound 29, N-cyclohexyl-1-[2-(pyridin-2-yl)-5H,6H,7H-cyclopenta[d]pyrimidin-4-yl]azetidine-3-carboxamide] displayed a pEC50 of 5.9. For `Cc1ccnc(-c2nc3c(c(N4CC(C(=O)NC5CCCCC5)C4)n2)CCC3)c1` [Compound 30, N-cyclohexyl-1-[2-(4-methylpyridin-2-yl)-5H,6H,7H-cyclopenta[d]pyrimidin-4-yl]azetidine-3-carboxamide], the pEC50 came out at 5.7.

Compound `CN1CCC(NC(=O)CN(C)c2nc(-c3ccccn3)nc3c2CCC3)C1=O` (stereo not shown) [Compound 31, N-(1-methyl-2-oxopyrrolidin-3-yl)-2-{methyl[2-(pyridin-2-yl)-5H,6H,7H-cyclopenta[d]pyrimidin-4-yl]amino}acetamide] gave a pEC50 of 6.2. The value for `CN(CC(=O)Nc1ccc2c(c1)OC(F)(F)O2)c1nc(-c2ccccn2)nc2c1CCC2` [Compound 32, N-(2,2-difluoro-2H-1,3-benzodioxol-5-yl)-2-{methyl[2-(pyridin-2-yl)-5H,6H,7H-cyclopenta[d]pyrimidin-4-yl]amino}acetamide] was 7.2; that for `CC(C)(C)NC(=O)CNc1nc(-c2ncccn2)nc2c1CCC2` [Compound 33, N-tert-butyl-2-{[2-(pyrimidin-2-yl)-5H,6H,7H-cyclopenta[d]pyrimidin-4-yl]amino}acetamide] was 5.7; that for `COc1ccnc(-c2nc3c(c(N(C)CC(=O)NC(C)(C)C)n2)CCC3)c1` [Compound 34, N-tert-butyl-2-{[2-(4-methoxypyridin-2-yl)-5H,6H,7H-cyclopenta[d]pyrimidin-4-yl](methyl)amino}acetamide] was 7.9.

The compound `COCc1ccnc(-c2nc3c(c(N(C)CC(=O)NC(C)(C)C)n2)CCC3)c1` [Compound 35, N-tert-butyl-2-({2-[4-(methoxymethyl)pyridin-2-yl]-5H,6H,7H-cyclopenta[d]pyrimidin-4-yl}(methyl)amino)acetamide] had a pEC50 of 7. The value for `CCN(CC(=O)NC(C)(C)C)c1nc(-c2ccccn2)nc2c1CCC2` [Compound 36, N-tert-butyl-2-{ethyl[2-(pyridin-2-yl)-5H,6H,7H-cyclopenta[d]pyrimidin-4-yl]amino}acetamide] was 7.3.
